Experiments:
HMG Co-A Reductase = target: T1, HMG Co-A Reductase (Rattus norvegicus, UniProt P51639); test: Measurement of inhibiting effect on HMG Co-A reductase (inhibiting ratio of biosynthesis of cholesterol); format: biochemical; conditions: 0.1 μM samples, compactin = 100
T1 construct: from tissue
T1 sequence (P51639 1-887): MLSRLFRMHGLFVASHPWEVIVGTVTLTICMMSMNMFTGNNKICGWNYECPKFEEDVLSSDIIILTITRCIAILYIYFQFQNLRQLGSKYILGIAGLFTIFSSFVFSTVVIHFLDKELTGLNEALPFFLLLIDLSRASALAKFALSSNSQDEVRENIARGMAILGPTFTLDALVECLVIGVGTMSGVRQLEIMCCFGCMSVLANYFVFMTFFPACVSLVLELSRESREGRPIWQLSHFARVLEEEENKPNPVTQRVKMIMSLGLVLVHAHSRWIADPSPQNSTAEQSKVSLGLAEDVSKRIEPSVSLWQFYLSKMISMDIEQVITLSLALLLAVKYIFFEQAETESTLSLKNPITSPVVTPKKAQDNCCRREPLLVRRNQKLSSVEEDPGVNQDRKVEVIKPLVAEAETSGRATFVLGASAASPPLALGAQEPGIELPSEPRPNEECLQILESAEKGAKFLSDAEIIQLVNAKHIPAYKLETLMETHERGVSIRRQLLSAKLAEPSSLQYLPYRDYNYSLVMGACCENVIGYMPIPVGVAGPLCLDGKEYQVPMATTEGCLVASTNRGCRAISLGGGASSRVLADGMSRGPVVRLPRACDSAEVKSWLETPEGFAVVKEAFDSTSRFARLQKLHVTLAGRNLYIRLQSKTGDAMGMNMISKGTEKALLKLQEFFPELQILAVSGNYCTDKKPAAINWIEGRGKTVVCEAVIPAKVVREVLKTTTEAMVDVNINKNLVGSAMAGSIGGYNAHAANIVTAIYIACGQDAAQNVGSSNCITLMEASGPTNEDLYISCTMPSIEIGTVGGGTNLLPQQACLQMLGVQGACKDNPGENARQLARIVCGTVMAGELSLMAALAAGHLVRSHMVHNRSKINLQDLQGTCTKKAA
Method: The inhibiting effect on HMG Co-A Reductase of representative examples of the 4-hydroxytetrahydropyran-2-one derivatives prepared in the above-discussed examples was measured in accordance with the method described in Journal of Biological Chemistry (J. Biol. Chem.) Vol. 234, page 2835 (1959) in order to investigate the inhibiting activity of each derivative in terms of the inhibiting ratio of the biosynthesis of cholesterol.

rat brain homogenate = test: Anti-oxidation function: inhibition of automatic ABARTS reproduction of rat brain homogenate; format: biochemical; conditions: vitamin E as reference = 100
Method: The anti-oxidation function of some examples of the 4-hydroxytetrahydropyran-2-one derivatives prepared in the above-discussedexamples was measured as a reference of the inhibition function of the automatic ABARTS reproduction of the rat brain homogenate in accordance with the method described in Nippon Yakuri-shi 87, 427-434 (1986) by K. Shintomi et al.

| Inhibiting Activity (Inhibiting Ratio of Biosynthesis of Cholesterol), relative value when the value of compactin is 100 (HMG Co-A Reductase) | Compound | Anti-oxidation Function (rat brain homogenate) |
| --- | --- | --- |
| 11 | Cc1c(O)c(C)c2c(c1CC[C@H]1C[C@H](O)CC(=O)O1)OC(C)(C)C2 (racemic) [Compound No. 14, trans-(±)-6-(2,3-dihydro-5-hydroxy-2,2,4,6-tetramethylbenzo[b]furan-7-yl)ethyl-4-hydroxytetrahydropyran-2-one] | 106 |
| 427 | Cc1c2c(c(CC[C@H]3C[C@H](O)CC(=O)O3)c(C(C)C)c1OCc1ccccc1)OC(C)(C)C2 (racemic) [Compound No. 81, trans-(±)-6-[5-benzyloxy-2,3-dihydro-6-(2-propyl)-2,2,4-trimethylbenzo[b]furan-7-yl]ethyl-4-hydroxytetrahydropyran-2-one] |  |
| 190 | Cc1c2c(c(CC[C@H]3C[C@H](O)CC(=O)O3)c(C(C)(C)C)c1OCc1ccccc1)OC(C)(C)C2 (racemic) [Compound No. 112, trans-(±)-6-[5-benzyloxy-6-(t-butyl)-2,3-dihydro-2,2,4-trimethylbenzo[b]furan-7-yl]ethyl-4-hydroxytetrahydropyran-2-one] |  |
| 300 | CC1(C)Cc2cc(OCc3ccccc3)c(C(C)(C)C)c(CC[C@H]3C[C@H](O)CC(=O)O3)c2O1 (racemic) [Compound No. 124, trans-(±)-6-[5-benzyloxy-6-(t-butyl)-2,3-dihydro-2,2-dimethylbenzo[b]furan-7-yl]ethyl-4-hydroxytetrahydropyran-2-one] |  |
| 250 | CC(C)c1c(OCc2ccccc2)cc2c(c1CC[C@H]1C[C@H](O)CC(=O)O1)OC(C)(C)C2 (racemic) [Compound No. 154, trans-(±)-6-[5-benzyloxy-2,3-dihydro-2,2-dimethyl-6-(2-propyl)benzo[b]furan-7-yl]ethyl-4-hydroxytetrahydropyran-2-one] |  |
| 50 | Cc1c(CC[C@@H]2C[C@@H](O)CC(=O)O2)c2c(c(C)c1OCc1ccccc1)CC(C)(C)O2 (relative stereo) [Compound No. 13, trans-(±)-6-(5-benzyloxy-2,3-dihydro-2,2,4,6-tetramethylbenzo[b]furan-7-ethyl-4-hydroxytetrahydropyran-2-one] |  |
| 90 | Cc1c(CC[C@@H]2C[C@@H](O)CC(=O)O2)c2c(c(C)c1OC(=O)c1cccnc1)CC(C)(C)O2 (relative stereo) [Compound No. 31, trans-(±)-6-[2,3-dihydro-5-(pyridine-3-carboxy)-2,2,4,6-tetramethylbenzo[b]furan-7-yl]ethyl-4-hydroxytetrahydropyran-2-one] |  |
| 39 | Cc1c(CC[C@@H]2C[C@@H](O)CC(=O)O2)c2c(c(C)c1OCc1ccccc1)CCC(C)(C)O2 (relative stereo) [Compound No. 45] |  |
| 28 | Cc1c(O)c(C)c2c(c1CC[C@@H]1C[C@@H](O)CC(=O)O1)OC(C)(C)CC2 (relative stereo) [Compound No. 46, trans-(±)-6-[(6-hydroxy-2,2,5,7-tetramethyl)chroman-8-yl]ethyl-4-hydroxytetrahydropyran-2-one] | 106 |
| 18 | Cc1c(CC[C@@H]2C[C@@H](O)CC(=O)O2)c2c(c(C)c1OC(=O)c1cccnc1)CCC(C)(C)O2 (relative stereo) [Compound No. 52, trans-(±)-6-[[6-pyridine-3-carboxy)-2,2,5,7-tetramethyl]-chroman-8-yl]ethyl-4-hydroxytetrahydropyran-2-one] | 19 |
| 180 | Cc1c2c(c(CC[C@@H]3C[C@@H](O)CC(=O)O3)c(C(C)C)c1OC(=O)c1cccnc1)OC(C)(C)C2 (relative stereo) [Compound No. 156, trans-(±)-6-[2,3-dihydro-6-(2-propyl)-5-(pyridine-3-carboxy)-2,2,4-trimethylbenzo[b]furan-7-yl]ethyl-4-hydroxytetrahydropyran-2-one] |  |
|  | Vitamin E [reference compound] | 100 |

| Compound | Inhibiting Activity (Inhibiting Ratio of Biosynthesis of Cholesterol), relative value when the value of compactin is 100 (HMG Co-A Reductase) | Anti-oxidation Function (rat brain homogenate) |
| --- | --- | --- |
| CC(=O)Oc1c(C)c(CC[C@H]2C[C@H](O)CC(=O)O2)c2c(c1C)CC(C)(C)O2 (racemic) [Compound No. 33, trans-(±)-6-(5-acetoxy-2,3-dihydro-2,2,4,6-tetramethylbenzo[b]furan-7-yl)ethyl-4-hydroxytetrahydropyran-2-one] | 21 |  |
| CC(=O)Oc1c(C)c(CC[C@@H]2C[C@@H](O)CC(=O)O2)c2c(c1C)CCC(C)(C)O2 (relative stereo) [Compound No. 50, trans-(±)-6-[(6-acetoxy-2,2,5,7-tetramethyl)chroman-8-yl]ethyl-4-hydroxytetrahydropyran-2-one] | 12 | 106 |

— patent US5149834A, “4-Hydroxytetrahydropyran-2-one derivatives” (Fujirebio Inc., priority 1990, dated 1992)
